According to US20250346585A1 (Alexion Pharmaceuticals, Inc., priority 2022, published 2025):

Molecular target: Human complement C1s enzyme (Homo sapiens (Human), UniProt P09871)
Assay: Human C1s enzyme assay
Type: biochemical
Settings: Human complement C1s enzyme 1.16 nM, substrate Z-L-Lys-SBzl 100 μM, assay of Example 3; read-out: IC50 (Stars)
Summary of the method: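 IC50 derived by nonlinear regression of rate versus concentration, with rate taken from A405 kinetics (30 s intervals, 30 min) after adding 100 μM each Z-L-Lys-SBzl and DTNB. C1s from human serum, 1.16 nM, exposed to compound for 5 min at RT beforehand; buffer 50 mM Tris, 1 M NaCl, pH 7.5.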

Human complement C1s enzyme, sequence (P09871 438-688 limits assumed): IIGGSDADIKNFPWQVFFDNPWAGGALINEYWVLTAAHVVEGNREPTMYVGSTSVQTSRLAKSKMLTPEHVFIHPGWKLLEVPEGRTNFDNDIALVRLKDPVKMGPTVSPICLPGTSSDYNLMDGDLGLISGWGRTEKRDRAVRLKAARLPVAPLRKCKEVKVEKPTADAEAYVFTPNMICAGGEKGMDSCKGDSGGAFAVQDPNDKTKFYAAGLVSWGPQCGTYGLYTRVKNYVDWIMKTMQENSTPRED
Human complement C1s enzyme, sequence (P09871 16-437 partner limits assumed): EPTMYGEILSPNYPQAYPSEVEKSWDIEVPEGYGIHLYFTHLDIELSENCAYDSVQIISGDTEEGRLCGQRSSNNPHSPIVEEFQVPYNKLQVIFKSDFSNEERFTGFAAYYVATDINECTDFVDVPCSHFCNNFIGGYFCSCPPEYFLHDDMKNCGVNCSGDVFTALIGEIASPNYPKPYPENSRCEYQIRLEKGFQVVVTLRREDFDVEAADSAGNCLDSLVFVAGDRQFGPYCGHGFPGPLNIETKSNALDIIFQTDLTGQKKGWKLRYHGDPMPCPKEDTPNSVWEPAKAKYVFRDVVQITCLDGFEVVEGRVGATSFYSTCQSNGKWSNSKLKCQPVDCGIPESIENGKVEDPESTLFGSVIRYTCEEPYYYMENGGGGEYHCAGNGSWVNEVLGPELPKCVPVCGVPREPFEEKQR

IC50	Structure (SMILES)
< 100 nM	C[C@@H](NC(=O)[C@@H]1C[C@](F)(CO)CN1C(=O)CNC(=O)c1ccc2c(c1)-c1ccccc1C2(F)F)c1cc(C(=N)N)cs1 [Compound 292, (2S,4R)—N—((R)-1-(4-carbamimidoylthiophen-2-yl)ethyl)-1-((9,9-difluoro-9H-fluorene-3-carbonyl)glycyl)-4-fluoro-4-(hydroxymethyl)pyrrolidine-2-carboxamide]
100 to 1000 nM	C[C@@]12C[C@@H]1N(C(=O)CNC(=O)c1ccc(Oc3ccccc3)cc1)[C@H](C(=O)NCc1cc3c(s1)C(N)=NCC3)C2 [Compound 293, (1S,3S,5S)—N-((7-amino-4,5-dihydrothieno[2,3-c]pyridin-2-yl)methyl)-5-methyl-2-((4-phenoxybenzoyl)glycyl)-2-azabicyclo[3.1.0]hexane-3-carboxamide]
< 100 nM	C[C@@H](NC(=O)[C@@H]1CC2(CN1C(=O)CNC(=O)c1ccc3c(c1)Oc1ccccc1N3)OCCO2)c1cc(C(=N)N)cs1 [Compound 294, N-(2-((S)-8-(((R)-1-(4-carbamimidoylthiophen-2-yl)ethyl)carbamoyl)-1,4-dioxa-7-azaspiro[4.4]nonan-7-yl)-2-oxoethyl)-10H-phenoxazine-3-carboxamide]
< 100 nM	C[C@H](NC(=O)c1ccc(-c2ccc(F)cc2)cc1)C(=O)N1CC2(C[C@H]1C(=O)NCc1cc(C(=N)N)cs1)OCCO2 [Compound 296, (S)—N-((4-carbamimidoylthiophen-2-yl)methyl)-7-((4′-fluoro-[1,1′-biphenyl]-4-carbonyl)-L-alanyl)-1,4-dioxa-7-azaspiro[4.4]nonane-8-carboxamide]
< 100 nM	N=C(N)c1csc(CNC(=O)[C@@H]2CC3(CN2C(=O)CNC(=O)c2ccc(-c4ccccc4)o2)OCCO3)c1 [Compound 297, (S)—N-((4-carbamimidoylthiophen-2-yl)methyl)-7-((5-phenylfuran-2-carbonyl)glycyl)-1,4-dioxa-7-azaspiro[4.4]nonane-8-carboxamide]
< 100 nM	N=C(N)c1csc(CNC(=O)[C@@H]2CC3(CN2C(=O)CNC(=O)c2ccc(-c4ccc(F)cc4F)o2)OCCO3)c1 [Compound 298, (S)—N-((4-carbamimidoylthiophen-2-yl)methyl)-7-((5-(2,4-difluorophenyl)furan-2-carbonyl)glycyl)-1,4-dioxa-7-azaspiro[4.4]nonane-8-carboxamide]
< 100 nM	N=C(N)c1csc(CNC(=O)[C@@H]2CC3(CN2C(=O)CNC(=O)c2ccc(-c4ccc(F)cc4)o2)OCCO3)c1 [Compound 299, (S)—N-((4-carbamimidoylthiophen-2-yl)methyl)-7-((5-(4-fluorophenyl)furan-2-carbonyl)glycyl)-1,4-dioxa-7-azaspiro[4.4]nonane-8-carboxamide]
< 100 nM	C[C@H](NC(=O)c1ccc(-c2ccccc2)cc1)C(=O)N1CC2(C[C@H]1C(=O)NCc1cc(C(=N)N)cs1)OCCO2 [Compound 300, (S)-7-(([1,1′-biphenyl]-4-carbonyl)-L-alanyl)-N-((4-carbamimidoylthiophen-2-yl)methyl)-1,4-dioxa-7-azaspiro[4.4]nonane-8-carboxamide]
< 100 nM	C[C@@H](NC(=O)c1ccc(-c2ccc(F)cc2F)cc1)C(=O)N1CC2(C[C@H]1C(=O)NCc1cc(C(=N)N)cs1)OCCO2 [Compound 301, (S)—N-((4-carbamimidoylthiophen-2-yl)methyl)-7-((2′,4′-difluoro-[1,1′-biphenyl]-4-carbonyl)-D-alanyl)-1,4-dioxa-7-azaspiro[4.4]nonane-8-carboxamide]
< 100 nM	C[C@@H](NC(=O)c1ccc(-c2ccccc2)cc1)C(=O)N1CC2(C[C@H]1C(=O)NCc1cc(C(=N)N)cs1)OCCO2 [Compound 302, (S)-7-(([1,1′-biphenyl]-4-carbonyl)-D-alanyl)-N-((4-carbamimidoylthiophen-2-yl)methyl)-1,4-dioxa-7-azaspiro[4.4]nonane-8-carboxamide]
< 100 nM	C[C@@H](NC(=O)[C@@H]1C[C@]2(CN)C[C@@H]2N1C(=O)CNC(=O)c1ccc2c(c1)-c1ccccc1C2(F)F)c1cc(C(=N)N)cs1 [Compound 303, (1S,3S,5S)-5-(aminomethyl)-N—((R)-1-(4-carbamimidoylthiophen-2-yl)ethyl)-2-((9,9-difluoro-9H-fluorene-3-carbonyl)glycyl)-2-azabicyclo[3.1.0]hexane-3-carboxamide]
< 100 nM	C[C@@H](NC(=O)[C@@H]1C[C@]2(CN(C)C)C[C@@H]2N1C(=O)CNC(=O)c1ccc2c(c1)-c1ccccc1C2(F)F)c1cc(C(=N)N)cs1 [Compound 304, (1S,3S,5S)—N—((R)-1-(4-carbamimidoylthiophen-2-yl)ethyl)-2-((9,9-difluoro-9H-fluorene-3-carbonyl)glycyl)-5-((dimethylamino)methyl)-2-azabicyclo[3.1.0]hexane-3-carboxamide]
< 100 nM	C[C@@H](NC(=O)[C@@H]1C[C@@H](C(F)(F)F)CN1C(=O)CNC(=O)c1ccc(Oc2ccc(F)cc2)cc1)c1cc(C(=N)N)cs1 [Compound 307, (2S,4R)—N—((R)-1-(4-carbamimidoylthiophen-2-yl)ethyl)-1-((4-(4-fluorophenoxy)benzoyl)glycyl)-4-(trifluoromethyl)pyrrolidine-2-carboxamide]
> 1000 nM	O=C(NCC(=O)N1CC2(C[C@H]1C(=O)NCc1cc(NCCO)cs1)OCCO2)c1ccc(Oc2ccc(F)cc2)cc1 [Compound 308, (S)-7-((4-(4-fluorophenoxy)benzoyl)glycyl)-N-((4-((2-hydroxyethyl)amino)thiophen-2-yl)methyl)-1,4-dioxa-7-azaspiro[4.4]nonane-8-carboxamide]
> 1000 nM	C=CC(=O)Nc1csc(CNC(=O)[C@@H]2CC3(CN2C(=O)CNC(=O)c2ccc(Oc4ccc(F)cc4)cc2)OCCO3)c1 [Compound 309, (S)-N-((4-acrylamidothiophen-2-yl)methyl)-7-((4-(4-fluorophenoxy)benzoyl)glycyl)-1,4-dioxa-7-azaspiro[4.4]nonane-8-carboxamide]
> 1000 nM	NC(=O)CCNc1csc(CNC(=O)[C@@H]2CC3(CN2C(=O)CNC(=O)c2ccc(Oc4ccc(F)cc4)cc2)OCCO3)c1 [Compound 310, (S)-N-((4-((3-amino-3-oxopropyl)amino)thiophen-2-yl)methyl)-7-((4-(4-fluorophenoxy)benzoyl)glycyl)-1,4-dioxa-7-azaspiro[4.4]nonane-8-carboxamide]
> 1000 nM	NCCC(=O)Nc1csc(CNC(=O)[C@@H]2CC3(CN2C(=O)CNC(=O)c2ccc(Oc4ccc(F)cc4)cc2)OCCO3)c1 [Compound 311, (S)-N-((4-(3-aminopropanamido)thiophen-2-yl)methyl)-7-((4-(4-fluorophenoxy)benzoyl)glycyl)-1,4-dioxa-7-azaspiro[4.4]nonane-8-carboxamide]
< 100 nM	C[C@@H](NC(=O)[C@@H]1CC2(CN1C(=O)CNC(=O)c1ccc3c(c1)Sc1ccccc1O3)OCCO2)c1cc(C(=N)N)cs1 [Compound 312, (S)—N—((R)-1-(4-carbamimidoylthiophen-2-yl)ethyl)-7-((phenoxathiine-2-carbonyl)glycyl)-1,4-dioxa-7-azaspiro[4.4]nonane-8-carboxamide]
< 100 nM	C[C@@H](NC(=O)[C@@H]1C[C@]2(COCCN)C[C@@H]2N1C(=O)CNC(=O)c1ccc2c(c1)-c1ccccc1C2(F)F)c1cc(C(=N)N)cs1 [Compound 313, (1S,3S,5R)-5-((2-aminoethoxy)methyl)-N—((R)-1-(4-carbamimidoylthiophen-2-yl)ethyl)-2-((9,9-difluoro-9H-fluorene-3-carbonyl)glycyl)-2-azabicyclo[3.1.0]hexane-3-carboxamide]
